Common to all, as to format: cell-based
One experiment concerns VCaP cells. The experiment in a line: Cellular potency (IC50) in VCaP cells. Conditions: Homo sapiens, VCaP. The procedure: (§1) Biological Assays. LNCaP and VCaP cells used were purchased from American Type Culture Collection (ATCC). LNCaP were grown in RPMI 1640 (Invitrogen) and VCaP cells were grown in DMEM with Glutamax (Invitrogen). All of the cells were supplemented with 10% fetal bovine serum (Invitrogen) at 37° C. in a humidified 5% CO2 incubator.

For a further experiment, the target named is T1, AR (Homo sapiens, UniProt P10275).
T1 construct: Degradation of AR; Cellular potency; host or cells: VCaP cells
T1 sequence (P10275 1-920): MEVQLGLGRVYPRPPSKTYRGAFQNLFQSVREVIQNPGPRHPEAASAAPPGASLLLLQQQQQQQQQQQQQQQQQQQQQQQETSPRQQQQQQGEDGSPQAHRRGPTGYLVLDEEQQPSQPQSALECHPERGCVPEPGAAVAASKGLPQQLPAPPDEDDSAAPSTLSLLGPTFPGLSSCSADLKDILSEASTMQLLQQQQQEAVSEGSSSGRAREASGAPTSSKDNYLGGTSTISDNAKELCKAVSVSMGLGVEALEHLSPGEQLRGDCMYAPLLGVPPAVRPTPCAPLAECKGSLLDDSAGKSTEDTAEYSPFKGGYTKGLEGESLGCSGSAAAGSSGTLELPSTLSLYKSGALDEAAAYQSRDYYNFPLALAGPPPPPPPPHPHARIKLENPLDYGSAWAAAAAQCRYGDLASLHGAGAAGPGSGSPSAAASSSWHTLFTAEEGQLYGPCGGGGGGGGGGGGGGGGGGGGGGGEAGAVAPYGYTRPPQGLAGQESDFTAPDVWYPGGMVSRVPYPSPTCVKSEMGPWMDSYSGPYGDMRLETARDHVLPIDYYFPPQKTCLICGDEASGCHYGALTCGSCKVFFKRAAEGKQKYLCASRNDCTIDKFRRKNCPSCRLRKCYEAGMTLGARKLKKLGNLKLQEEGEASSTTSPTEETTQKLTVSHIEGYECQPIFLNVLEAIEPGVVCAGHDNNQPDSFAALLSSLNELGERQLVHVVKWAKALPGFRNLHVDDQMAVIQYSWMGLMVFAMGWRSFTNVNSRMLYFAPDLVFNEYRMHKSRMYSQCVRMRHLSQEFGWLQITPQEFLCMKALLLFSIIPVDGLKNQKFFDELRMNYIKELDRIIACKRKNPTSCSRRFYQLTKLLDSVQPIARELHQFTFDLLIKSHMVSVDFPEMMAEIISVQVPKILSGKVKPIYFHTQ
The experiment in a line: Degradation of AR in VCaP cells. Conditions: for Dmax: VCaP. Here is the method: as §1

The test system of another experiment is LNCaP cells. As to the kind of experiment: Cellular potency (IC50) in LNCaP cells. Conditions: Homo sapiens, LNCaP. The procedure:
as §1

Molecule `C[C@H]1CC2(CCN(c3ccc(N4CCN(CC5CCN(c6ccc7c(c6)C(=O)N(C6CCC(=O)NC6=O)C7=O)CC5)CC4)cn3)CC2)CN1c1ccc(C#N)c(Cl)c1` (stereo partly drawn) [compound 32] came in with an IC50 in the experiment with VCaP cells below 10 nM. At AR (VCaP cells), this molecule came in with a DC50 below 1 nM and a Dmax above 90%. Besides, in the experiment on LNCaP cells, the IC50 is below 10 nM.
In the case of `C[C@H]1CC2(CCN(c3ccc(C4CCN(C5CN(c6ccc7c(c6)C(=O)N(C6CCC(=O)NC6=O)C7=O)C5)CC4)cc3)CC2)CN1c1ccc(C#N)c(Cl)c1` (stereo partly drawn) [compound 22], in the experiment on VCaP cells, the IC50 was below 100 nM. For the same molecule, on AR (VCaP cells), the DC50 was below 100 nM and the Dmax was 70 to 90%. The IC50 with LNCaP cells is below 100 nM.
As to `COC1(CN2CCN(c3ccc(N4CCC5(CC4)C[C@H](C)N(c4ccc(C#N)c(Cl)c4)C5)cc3)CC2)CN(c2ccc3c(c2)C(=O)N(C2CCC(=O)NC2=O)C3=O)C1` (stereo partly drawn) [compound 85], at AR (VCaP cells), the DC50 is below 1 nM and the Dmax was above 90%.
As for `C[C@H]1CC2(CCN(c3ccc(C(=O)N4CCC(C(=O)CN5Cc6cc7c(cc6C5)C(=O)N(C5CCC(=O)NC5=O)C7=O)CC4)nc3)CC2)CN1c1ccc(C#N)c(Cl)c1` (stereo partly drawn) [compound 160], the values for the IC50 in the experiment on VCaP cells and in the experiment on LNCaP cells were below 1000 nM and below 10 nM, respectively. At AR (VCaP cells), this molecule displayed a 50% degradation concentration (DC50) below 1 nM.
For `C[C@H]1CC2(CCN(c3ccc(CN4CC(C5CCN(c6ccc7c(c6)C(=O)N(C6CCC(=O)NC6=O)C7=O)CC5)C4)nc3)CC2)CN1c1ccc(C#N)c(Cl)c1` (stereo partly drawn) [compound 179], the values for the IC50 in the experiment on VCaP cells and in the experiment on LNCaP cells were below 100 nM and below 10 nM, respectively. For the same molecule, the DC50 at AR (VCaP cells) was below 10 nM.
For `C[C@H]1CC2(CCN(c3ccc(N4CCN(C5CN(c6ccc7c(c6)C(=O)N(C6CCC(=O)NC6=O)C7=O)C5)CC4)cc3)CC2)CN1c1ccc(C#N)c(Cl)c1` (stereo partly drawn) [compound 27], the IC50 in the experiment on VCaP cells is below 10 nM. At AR (VCaP cells), this molecule yielded a DC50 below 1 nM and a Dmax above 90%. This molecule also registered an IC50 with LNCaP cells below 10 nM.
With `C[C@H]1CC2(CCN(c3ccc(CN4CCN(C5CN(c6ccc7c(c6)C(=O)N(C6CCC(=O)NC6=O)C7=O)C5)CC4)nn3)CC2)CN1c1ccc(C#N)c(Cl)c1` (stereo partly drawn) [compound 173], the results for the IC50 in the experiment with VCaP cells and in the experiment with LNCaP cells were below 100 nM and below 10 nM, respectively. This molecule also displayed a 50% degradation concentration (DC50) at AR (VCaP cells) below 1 nM.
Regarding `C[C@H]1CC2(CCN(c3ccc(N4CCC(OC5CN(c6ccc7c(c6)C(=O)N(C6CCC(=O)NC6=O)C7=O)C5)CC4)cn3)CC2)CN1c1ccc(C#N)c(Cl)c1` (stereo partly drawn) [compound 92], the IC50 in the experiment on VCaP cells was below 10 nM. Moreover, at AR (VCaP cells), the DC50 was below 1 nM and the Dmax was above 90%. In the experiment on LNCaP cells, the half-maximal inhibitory concentration (IC50) is below 10 nM.
Regarding `C[C@H]1CC2(CCN(c3ccc(CN4CCN(C5CN(c6ccc7c(c6)C(=O)N(C6CCC(=O)NC6=O)C7=O)C5)CC4)cn3)CC2)CN1c1ccc(C#N)c(Cl)c1` (stereo partly drawn) [compound 167], the IC50 with VCaP cells and in the experiment on LNCaP cells was below 10 nM each time.
Take `C[C@H]1CC2(CCN(c3ccc(C(=O)C4CCN(CC(=O)N5Cc6cc7c(cc6C5)C(=O)N(C5CCC(=O)NC5=O)C7=O)CC4)cc3)CC2)CN1c1ccc(C#N)c(Cl)c1` (stereo partly drawn) [compound 147, 2-chloro-4-((3S)-8-(4-(1-(2-(6-(2,6-dioxopiperidin-3-yl)-5,7-dioxo-3,5,6,7-tetrahydropyrrolo[3,4-f]isoindol-2(1H)-yl)-2-oxoethyl)piperidine-4-carbonyl)phenyl)-3-methyl-2,8-diazaspiro[4.5]decan-2-yl)benzonitrile]: the values for the IC50 in the experiment on VCaP cells and with LNCaP cells were below 100 nM and below 10 nM, respectively.
Take `C[C@H]1CC2(CCN(c3ccc(CN4CCN(C5CN(c6cc7c(cc6F)C(=O)N(C6CCC(=O)NC6=O)C7=O)C5)CC4)cn3)CC2)CN1c1ccc(C#N)c(Cl)c1` (stereo partly drawn) [compound 153, 2-chloro-4-((3S)-8-(5-((4-(1-(2-(2,6-dioxopiperidin-3-yl)-6-fluoro-1,3-dioxoisoindolin-5-yl)azetidin-3-yl)piperazin-1-yl)methyl)pyridin-2-yl)-3-methyl-2,8-diazaspiro[4.5]decan-2-yl)benzonitrile]: the IC50 with VCaP cells was below 100 nM; in the experiment on LNCaP cells, below 10 nM.
For `COC1(CN2CCN(c3ccc(N4CCC5(CC4)C[C@H](C)N(c4ccc(C#N)c(Cl)c4)C5)cn3)CC2)CN(c2ccc3c(c2)C(=O)N(C2CCC(=O)NC2=O)C3=O)C1` (stereo partly drawn) [compound 87], at AR (VCaP cells), the DC50 was below 1 nM and the Dmax is above 90%.
The like results for `C[C@H]1CC2(CCN(c3ccc(C4CCN(C(=O)CN5Cc6cc7c(cc6C5)C(=O)N(C5CCC(=O)NC5=O)C7=O)CC4)cc3)CC2)CN1c1ccc(C#N)c(Cl)c1` (stereo partly drawn) [compound 15] were, in that order, below 100 nM and above 90%.
Turning to `C[C@H]1CC2(CCN(c3ccc(N4CCN(CC5(F)CN(c6ccc7c(c6)C(=O)N(C6CCC(=O)NC6=O)C7=O)C5)CC4)nc3)CC2)CN1c1ccc(C#N)c(Cl)c1` (stereo partly drawn) [compound 86], at AR (VCaP cells), the DC50 is below 1 nM and the Dmax was above 90%.
As for `C[C@H]1CC2(CCN(c3ccc(CN4CCN(C5CN(c6ccc7c(c6)C(=O)N(C6CCC(=O)NC6=O)C7=O)C5)CC4)nc3)CC2)CN1c1ccc(C#N)c(Cl)c1` (stereo partly drawn) [compound 169, 2-chloro-4-((3S)-8-(6-((4-(1-(2-(2,6-dioxopiperidin-3-yl)-1,3-dioxoisoindolin-5-yl)azetidin-3-yl)piperazin-1-yl)methyl)pyridin-3-yl)-3-methyl-2,8-diazaspiro[4.5]decan-2-yl)benzonitrile], the IC50 with VCaP cells and in the experiment on LNCaP cells was below 10 nM in each case.
Regarding `C[C@H]1CC2(CCN(c3ccc(CN4CCC(C5CCN(c6ccc7c(c6)C(=O)N(C6CCC(=O)NC6=O)C7=O)CC5)CC4)cn3)CC2)CN1c1ccc(C#N)c(Cl)c1` (stereo partly drawn) [compound 180, 2-chloro-4-((3S)-8-(5-((1′-(2-(2,6-dioxopiperidin-3-yl)-1,3-dioxoisoindolin-5-yl)-[4,4′-bipiperidin]-1-yl)methyl)pyridin-2-yl)-3-methyl-2,8-diazaspiro[4.5]decan-2-yl)benzonitrile], the IC50 with VCaP cells was below 100 nM; in the experiment with LNCaP cells it was below 10 nM.
Take `C[C@H]1CC2(CCN(c3ccc(N4CCN(CC5(F)CN(c6ccc7c(c6)C(=O)N(C6CCC(=O)NC6=O)C7=O)C5)CC4)cn3)CC2)CN1c1ccc(C#N)c(Cl)c1` (stereo partly drawn) [compound 88]: on AR (VCaP cells), the DC50 is below 1 nM and the Dmax was above 90%.
On AR (VCaP cells), `C[C@H]1CC2(CCN(c3ccc(S(=O)(=O)N4CCN(C5CCN(c6ccc7c(c6)C(=O)N(C6CCC(=O)NC6=O)C7=O)CC5)CC4)cc3)CC2)CN1c1ccc(C#N)c(Cl)c1` (stereo partly drawn) [compound 1] returned a DC50 below 1 nM and a Dmax above 90%.
Take `C[C@H]1CC2(CCN(c3ccc(N4CCN(CC5(F)CN(c6ccc7c(c6)C(=O)N(C6CCC(=O)NC6=O)C7=O)C5)CC4)cc3)CC2)CN1c1ccc(C#N)c(Cl)c1` (stereo partly drawn) [compound 84]: at AR (VCaP cells), the DC50 is below 1 nM and the Dmax is above 90%.
For the molecule `COC1(CN2Cc3cc4c(cc3C2)C(=O)N(C2CCC(=O)NC2=O)C4=O)CCN(C(=O)c2ccc(N3CCC4(CC3)C[C@H](C)N(c3ccc(C#N)c(F)c3)C4)cc2)CC1` (stereo partly drawn) [compound 13], the Dmax at AR is above 90%. Besides, the DC50 on AR (VCaP cells) is below 100 nM.
`COC1(CN2CCN(c3ccc(N4CCC5(CC4)C[C@H](C)N(c4ccc(C#N)c(Cl)c4)C5)nc3)CC2)CN(c2ccc3c(c2)C(=O)N(C2CCC(=O)NC2=O)C3=O)C1` (stereo partly drawn) [compound 89]: on AR (VCaP cells), the DC50 is below 1 nM and the Dmax is above 90%.
Consider `C[C@H]1CC2(CCN(c3cnc(CN4CCN(C5CN(c6ccc7c(c6)C(=O)N(C6CCC(=O)NC6=O)C7=O)C5)CC4)nc3)CC2)CN1c1ccc(C#N)c(Cl)c1` (stereo partly drawn) [compound 170, 2-chloro-4-((3S)-8-(2-((4-(1-(2-(2,6-dioxopiperidin-3-yl)-1,3-dioxoisoindolin-5-yl)azetidin-3-yl)piperazin-1-yl)methyl)pyrimidin-5-yl)-3-methyl-2,8-diazaspiro[4.5]decan-2-yl)benzonitrile], for which the IC50 in the experiment on VCaP cells is below 100 nM; in the experiment with LNCaP cells, below 10 nM.
Consider `C[C@H]1CC2(CCN(c3ccc(C(=O)C4CCN(C(=O)CN5Cc6cc7c(cc6C5)C(=O)N(C5CCC(=O)NC5=O)C7=O)CC4)cc3)CC2)CN1c1ccc(C#N)c(Cl)c1` (stereo partly drawn) [compound 148, 2-chloro-4-((3S)-8-(4-(1-(2-(6-(2,6-dioxopiperidin-3-yl)-5,7-dioxo-3,5,6,7-tetrahydropyrrolo[3,4-f]isoindol-2(1H)-yl)acetyl)piperidine-4-carbonyl)phenyl)-3-methyl-2,8-diazaspiro[4.5]decan-2-yl)benzonitrile], for which the IC50 is below 100 nM in the experiment on VCaP cells and below 10 nM in the experiment with LNCaP cells.

The record behind these values is US20240190874A1, “SMALL MOLECULE DEGRADERS OF ANDROGEN RECEPTOR” (THE REGENTS OF THE UNIVERSITY OF MICHIGAN, priority 2021, published 2024).
